Among the data in patent US7704995B2 (Exelixis, Inc., priority 2003, dated 2010) are IC50 values, retold here.

The first test deals with T1, Chk1 (Homo sapiens, UniProt O14757).
T1 construct: purchased Upstate Biotechnology
T1 sequence (O14757 1-476): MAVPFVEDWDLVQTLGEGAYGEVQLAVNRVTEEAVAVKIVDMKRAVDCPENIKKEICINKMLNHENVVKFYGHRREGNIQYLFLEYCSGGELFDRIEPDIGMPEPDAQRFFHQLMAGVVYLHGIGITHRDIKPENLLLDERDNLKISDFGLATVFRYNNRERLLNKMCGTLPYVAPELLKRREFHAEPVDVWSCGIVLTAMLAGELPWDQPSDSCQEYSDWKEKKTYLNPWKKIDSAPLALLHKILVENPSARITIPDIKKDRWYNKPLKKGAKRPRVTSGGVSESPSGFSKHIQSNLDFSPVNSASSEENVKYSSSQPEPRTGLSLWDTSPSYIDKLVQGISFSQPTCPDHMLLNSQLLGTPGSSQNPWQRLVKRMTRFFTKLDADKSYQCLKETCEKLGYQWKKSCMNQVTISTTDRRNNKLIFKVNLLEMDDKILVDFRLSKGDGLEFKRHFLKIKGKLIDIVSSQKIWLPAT
In words: Chk1 kinase assay: incorporation of γ-33P ATP into immobilized myelin basic protein. It counts as biochemical. The settings on record: Table 11, Chk1 only; class symbols A-D; read-out: Chk1 IC50. Summed up:
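Chk1 (10 nM) or Chk2 (20 nM) phosphorylated plate-immobilized myelin basic protein for 1 h at room temperature in Hepes pH 7.6 buffer with MgCl2, DTT, 1% DMSO, γ-33P ATP plus 10 μM (Chk1) or 30 μM (Chk2) unlabeled ATP. Bound radioactivity counted by scintillation; IC50 determined, Ki derivable from IC50.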
The IC50 is the point on the concentration scale where inhibition reaches its midpoint. For `Cc1ccc(CNC(=O)c2cccc(-c3cnc(N)c(C(=O)N[C@H]4CCCNC4)n3)c2)cc1F` [Example 1018, 3-amino-6-[3-({[(3-fluoro-4-methylphenyl)methyl]amino}carbonyl)phenyl]-N-[(3S)-piperidin-3-yl]pyrazine-2-carboxamide], the IC50 was less than 50 nM.

For the molecule `Nc1ncc(-c2cccc(C(=O)NCc3ccc(Cl)c(Cl)c3)c2)nc1-c1nc([C@H]2CCCNC2)n[nH]1` [Example 830, 3-(5-amino-6-{3-[(3S)-piperidin-3-yl]-1H-1,2,4-triazol-5-yl}pyrazin-2-yl)-N-[(3,4-dichlorophenyl)methyl]benzamide], the IC50 is less than 50 nM.

As to `Nc1ncc(-c2cccc(C(=O)NCc3ccc(F)c(F)c3)c2)nc1C(=O)N[C@H]1CCCCNC1` [Example 1008, 3-amino-N-[(3S)-azepan-3-yl]-6-[3-({[(3,4-difluorophenyl)methyl]amino}carbonyl)phenyl]pyrazine-2-carboxamide], the IC50 is less than 50 nM.

On to `Nc1ncc(-c2cccc(NC(=O)Cc3cc(C(F)(F)F)cc(C(F)(F)F)c3)c2)nc1C(=O)N[C@H]1CCCNC1` [Example 913, 3-amino-6-[3-({[3,5-bis(trifluoromethyl)phenyl]acetyl}amino)phenyl]-N-[(3S)-piperidin-3-yl]pyrazine-2-carboxamide], for which the half-inhibitory concentration (IC50) is less than 50 nM.

Take `Cc1c(Cl)cccc1CNC(=O)c1cccc(-c2cnc(N)c(C(=O)N[C@H]3CCCNC3)n2)c1` [Example 1025, 3-amino-6-[3-({[(3-chloro-2-methylphenyl)methyl]amino}carbonyl)phenyl]-N-[(3S)-piperidin-3-yl]pyrazine-2-carboxamide]: the IC50 is less than 50 nM.

As for `Nc1ncc(-c2cccc(C(=O)N[C@H]3c4ccccc4C[C@@H]3O)c2)nc1C(=O)N[C@H]1CCCCNC1` [Example 970, 3-amino-N-[(3S)-azepan-3-yl]-6-[3({[(1S,2S)-2-hydroxy-2,3-dihydro-1H-inden-1-yl]amino}carbonyl)phenyl]pyrazine-2-carboxamide], the IC50 is less than 50 nM.

Take `CN(C)c1ccc(C(=O)Nc2cccc(-c3cnc(N)c(C(=O)N[C@H]4CCCNC4)n3)c2)c2ccccc12` [Example 900, 3-amino-6-[3-({[4-(dimethylamino)naphthalen-1-yl]carbonyl}amino)phenyl]-N-[(3S)-piperidin-3-yl]pyrazine-2-carboxamide]: the IC50 is less than 50 nM.

For the molecule `Nc1ncc(-c2cccc(O)c2)nc1C(=O)N[C@H]1CCCNC1` [Example 840, 3-amino-6-(3-hydroxyphenyl)-N-[(3S)-piperidin-3-yl]pyrazine-2-carboxamide], the IC50 was less than 50 nM.

The test is the same for the next values; noted with them: Table 11; Chk1 only; read-out: Chk1 IC50.
`CNC(=O)c1nc(-c2ccc3ccnc(N[C@H]4CCc5ccccc54)c3c2)cnc1N` [Example 525, 3-amino-6-{1-[(1S)-2,3-dihydro-1H-inden-1-ylamino]isoquinolin-7-yl}-N-methylpyrazine-2-carboxamide]: the IC50 was in the range of 50 to 1000 nM.

For `CNC(=O)c1nc(-c2cccc(CNc3cccc4ccccc34)c2)cnc1N` [Example 448, 3-amino-N-methyl-6-{3-[(naphthalen-1-ylamino)methyl]phenyl}pyrazine-2-carboxamide], the IC50 was 50 to 1000 nM.

In the case of `CNC(=O)c1nc(-c2cccc(CNC3CCc4cc(Cl)ccc43)c2)cnc1N` (stereo not drawn) [Example 477, 3-amino-6-(3-{[(5-chloro-2,3-dihydro-1H-inden-1-yl)amino]methyl}phenyl)-N-methylpyrazine-2-carboxamide], the IC50 is less than 50 nM.

For `COC(=O)[C@@H](NC(=O)c1nc(-c2cccc(C(=O)NCc3ccccc3)c2)cnc1N)[C@@H](C)O` [Example 697, methyl N-{[3-amino-6-(3-{[(phenylmethyl)amino]carbonyl}phenyl)pyrazin-2-yl]carbonyl}threoninate], the IC50 is no less than 10000 nM.

On to `COc1cccc(-c2n[nH]c(-c3nc(-c4cccc(CN[C@H]5CCc6ccccc65)c4)cnc3N)n2)c1` [Example 584, 5-(3-{[(1S)-2,3-dihydro-1H-inden-1-ylamino]methyl}phenyl)-3-{3-[3-(methyloxy)phenyl]-1H-1,2,4-triazol-5-yl}pyrazin-2-amine], for which the IC50 fell in the range of 50 to 1000 nM.

In the case of `CC(C)(C)OC(=O)N1CCC[C@@H](NC(=O)c2nc(-c3cccc(C(=O)N[C@@H]4c5ccccc5C[C@@H]4O)c3)cnc2N)C1` [Example 795, 1,1-dimethylethyl (3R)-3-[({3-amino-6-[3-({[(1R,2S)-2-hydroxy-2,3-dihydro-1H-inden-1-yl]amino}carbonyl)phenyl]pyrazin-2-yl}carbonyl)amino]piperidine-1-carboxylate], the IC50 is no less than 10000 nM.

For the molecule `CCn1nc(-c2nc(-c3cccc(C(=O)N[C@@H]4CCc5ccccc54)c3)cnc2N)nc1C1CCCNC1` (stereo partly drawn) [Example 734, 3-[5-amino-6-(1-ethyl-5-piperidin-3-yl-1H-1,2,4-triazol-3-yl)pyrazin-2-yl]-N-[(1R)-2,3-dihydro-1H-inden-1-yl]benzamide], the 50% inhibitory concentration (IC50) fell in the range of 50 to 1000 nM.

Regarding `CNC(=O)c1nc(-c2cccc(CN[C@@H]3c4ccccc4C[C@@H]3OC)c2)cnc1N` [Example 468, 3-amino-N-methyl-6-[3-({[(1R,2S)-2-(methyloxy)-2,3-dihydro-1H-inden-1-yl]amino}methyl)phenyl]pyrazine-2-carboxamide], the IC50 lay within 50 to 1000 nM.

The same test, now with this note: read-out: Chk1 IC50.
Regarding `CNC(=O)c1nc(-c2cccc(C(=O)NCc3ccc(OCCN4CCOCC4)cc3)c2)cnc1N` [Example 324, 3-amino-N-methyl-6-(3-{[({4-[(2-morpholin-4-ylethyl)oxy]phenyl}methyl)amino]carbonyl}phenyl)pyrazine-2-carboxamide], the IC50 was 50 to 1000 nM.

For `CNC(=O)c1nc(-c2cccc(C(=O)NCc3ccc(S(N)(=O)=O)cc3)c2)cnc1N` [Example 237, 3-amino-6-{3-[({[4-(aminosulfonyl)phenyl]methyl}amino)carbonyl]phenyl}-N-methylpyrazine-2-carboxamide], the half-inhibitory concentration (IC50) is 50 to 1000 nM.

Consider `COc1ccccc1-c1cnc(N)c(C(N)=O)n1` [Example 17, 3-amino-6-[2-(methyloxy)phenyl]pyrazine-2-carboxamide], for which the IC50 is no less than 10000 nM.

On to `CNC(=O)c1nc(-c2cccc(C(=O)NCc3ccc(C)cc3C)c2)cnc1N` [Example 214, 3-amino-6-[3-({[(2,4-dimethylphenyl)methyl]amino}carbonyl)phenyl]-N-methylpyrazine-2-carboxamide], for which the IC50 is 50 to 1000 nM.

Regarding `CNC(=O)c1nc(-c2cccc(C(=O)NCc3ccc(N(C)C)cc3)c2)cnc1N` [Example 238, 3-amino-6-{3-[({[4-(dimethylamino)phenyl]methyl}amino)carbonyl]phenyl}-N-methylpyrazine-2-carboxamide], the IC50 lay within 50 to 1000 nM.

For the molecule `CNC(=O)c1nc(-c2cccc(C(=O)NCc3ccccc3SC)c2)cnc1N` [Example 356, 3-amino-N-methyl-6-{3-[({[2-(methylthio)phenyl]methyl}amino)carbonyl]phenyl}pyrazine-2-carboxamide], the half-inhibitory concentration (IC50) was less than 50 nM.

As for `CNC(=O)c1nc(-c2cccc(C(=O)NCc3cc(C)ccc3C)c2)cnc1N` [Example 261, 3-amino-6-[3-({[(2,5-dimethylphenyl)methyl]amino}carbonyl)phenyl]-N-methylpyrazine-2-carboxamide], the IC50 fell in the range of 50 to 1000 nM.

Consider `CNC(=O)c1nc(-c2cccc(C(=O)NCc3ccccc3Cl)c2)cnc1N` [Example 128, 3-amino-6-[3-({[(2-chlorophenyl)methyl]amino}carbonyl)phenyl]-N-methylpyrazine-2-carboxamide], for which the IC50 was in the range of 50 to 1000 nM.

With `CNC(=O)c1nc(-c2cccc(C(=O)N[C@@H]3CCN(Cc4cccc(OC)c4)C3)c2)cnc1NCc1cccc(OC)c1` [Example 361, N-methyl-3-({[3-(methyloxy)phenyl]methyl}amino)-6-(3-{[((3R)-1-{[3-(methyloxy)phenyl]methyl}pyrrolidin-3-yl)amino]carbonyl}phenyl)pyrazine-2-carboxamide], the IC50 was 50 to 1000 nM.

With `CNC(=O)c1nc(-c2cccc(NC(=O)C(c3ccccc3)c3ccccc3)c2)cnc1N` [Example 157, 3-amino-6-{3-[(diphenylacetyl)amino]phenyl}-N-methylpyrazine-2-carboxamide], the IC50 was 50 to 1000 nM.

Take `CNC(=O)c1nc(-c2cccc(C(=O)N[C@H](C)c3ccccc3)c2)cnc1N` [Example 144, 3-amino-N-methyl-6-[3-({[(1R)-1-phenylethyl]amino}carbonyl)phenyl]pyrazine-2-carboxamide]: the IC50 fell in the range of 1000 to 10000 nM.

On to `CNC(=O)c1nc(-c2cccc(C(=O)NCc3c(Cl)cc(Cl)cc3Cl)c2)cnc1N` [Example 292, 3-amino-N-methyl-6-[3-({[(2,4,6-trichlorophenyl)methyl]amino}carbonyl)phenyl]pyrazine-2-carboxamide], for which the IC50 lay in the range of 50 to 1000 nM.

For the molecule `CNC(=O)c1nc(-c2cccc(C(=O)NCc3cc(F)cc(C(F)(F)F)c3)c2)cnc1N` [Example 172, 3-amino-6-{3-[({[3-fluoro-5-(trifluoromethyl)phenyl]methyl}amino)carbonyl]phenyl}-N-methylpyrazine-2-carboxamide], the IC50 was 50 to 1000 nM.

Turning to `CNC(=O)c1nc(-c2ccc(Cl)c(C(=O)NCc3ccccc3)c2)cnc1N` [Example 240, 3-amino-6-(4-chloro-3-{[(phenylmethyl)amino]carbonyl}phenyl)-N-methylpyrazine-2-carboxamide], the IC50 lay in the range of 50 to 1000 nM.
